Measurements reported in PubChem BioAssay AID330 (DTP/NCI, 2004).
Several values for one entry are separate records, joined by “and”; a condition that tells them apart may be missing. Equal values may be shown once. Toxic doses and inconclusive results are not listed.

Test system: P388 leukemia ip, CD2F1 mice, survival T/C
Assay: NCI In Vivo Anticancer Drug Screen. Data for tumor model P388 Leukemia (intraperitoneal) in CD2F1 (CDF1) mice
Conditions: endpoint: median survival time, higher = longer survival
Summary of the method: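 Mice carrying the transplanted tumor received test compound or vehicle. Survival was recorded in each group, and the value is the treated-group measurement divided by that of the vehicle-treated control group.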

[1] = dose: 100.0 mg/kg/injection, schedule: Q01DX001 (ip), vehicle: Klucel (hydroxypropylcellulose) (HPC)
[2] = dose: 200.0 mg/kg/injection, schedule: Q01DX001 (ip), vehicle: Klucel (hydroxypropylcellulose) (HPC)
[3] = dose: 400.0 mg/kg/injection, schedule: Q01DX001 (ip), vehicle: Klucel (hydroxypropylcellulose) (HPC)
[4] = dose: 6.25 mg/kg/injection, schedule: Q01DX005 (ip), vehicle: saline
[5] = dose: 12.5 mg/kg/injection, schedule: Q01DX005 (ip), vehicle: saline
[6] = dose: 25.0 mg/kg/injection, schedule: Q01DX005 (ip), vehicle: saline
[7] = dose: 100.0 mg/kg/injection, schedule: Q01DX001 (ip), vehicle: saline with Tween-80
[8] = dose: 50.0 mg/kg/injection, schedule: Q01DX009 (ip), vehicle: suspension in saline
[9] = dose: 100.0 mg/kg/injection, schedule: Q01DX009 (ip), vehicle: suspension in saline
[10] = dose: 200.0 mg/kg/injection, schedule: Q01DX009 (ip), vehicle: suspension in saline
[11] = dose: 50.0 mg/kg/injection, schedule: Q01DX005 (ip), vehicle: saline with Tween-80
[12] = dose: 100.0 mg/kg/injection, schedule: Q01DX005 (ip), vehicle: saline with Tween-80
[13] = dose: 200.0 mg/kg/injection, schedule: Q01DX005 (ip), vehicle: saline with Tween-80

## O=c1[nH]cnc2[nH]ncc12
dose: 20.0 mg/kg/injection, schedule: Q01DX005 (ip), vehicle: saline with Tween-80
  T/C: 104 % of control
dose: 40.0 mg/kg/injection, schedule: Q01DX005 (ip), vehicle: saline with Tween-80
  T/C: 110 % of control
dose: 50.0 mg/kg/injection, schedule: Q01DX009 (ip), vehicle: saline sonified
  T/C: 95 % of control
dose: 50.0 mg/kg/injection, schedule: Q01DX009 (ip), vehicle: saline with Tween-80
  T/C: 95 % of control
dose: 50.0 mg/kg/injection, schedule: Q04DX003 (ip), vehicle: saline sonified
  T/C: 109 % of control
dose: 50.0 mg/kg/injection, schedule: Q04DX003 (ip), vehicle: saline with Tween-80
  T/C: 90 % of control
dose: 80.0 mg/kg/injection, schedule: Q01DX005 (ip), vehicle: saline with Tween-80
  T/C: 106 % of control
dose: 100.0 mg/kg/injection, schedule: Q01DX009 (ip), vehicle: saline sonified
  T/C: 100 % of control
dose: 100.0 mg/kg/injection, schedule: Q01DX009 (ip), vehicle: saline with Tween-80
  T/C: 95 % of control
dose: 100.0 mg/kg/injection, schedule: Q04DX003 (ip), vehicle: saline sonified
  T/C: 95 % of control
dose: 100.0 mg/kg/injection, schedule: Q04DX003 (ip), vehicle: saline with Tween-80
  T/C: 95 % of control
dose: 160.0 mg/kg/injection, schedule: Q01DX005 (ip), vehicle: saline with Tween-80
  T/C: 104 % of control
dose: 200.0 mg/kg/injection, schedule: Q01DX009 (ip), vehicle: saline sonified
  T/C: 100 % of control
dose: 200.0 mg/kg/injection, schedule: Q04DX003 (ip), vehicle: saline sonified
  T/C: 113 % of control
dose: 200.0 mg/kg/injection, schedule: Q04DX003 (ip), vehicle: saline with Tween-80
  T/C: 104 % of control

## CC(=O)Nc1ccc(S(=O)(=O)NC(CCC(N)=O)C(=O)O)cc1 (stereo not given)
[1]
  T/C: 95 % of control
[2]
  T/C: 100 % of control
[3]
  T/C: 92 % of control

## c1ccc(-c2cn3c(n2)SCC3)cc1
[1]
  T/C: 106 % of control
[2]
  T/C: 106 % of control
[3]
  T/C: 111 % of control

## COC(=O)C1C(c2ccccc2)C1(C#N)C#N (stereo not given)
dose: 60.0 mg/kg/injection, schedule: Q01DX005 (ip), vehicle: Klucel (hydroxypropylcellulose) (HPC)
  T/C: 96 % of control
dose: 120.0 mg/kg/injection, schedule: Q01DX005 (ip), vehicle: Klucel (hydroxypropylcellulose) (HPC)
  T/C: 106 % of control
dose: 240.0 mg/kg/injection, schedule: Q01DX005 (ip), vehicle: Klucel (hydroxypropylcellulose) (HPC)
  T/C: 98 % of control

## COc1ccc(OC)c2c(=O)c(C)c(C(=O)O)[nH]c12
dose: 100.0 mg/kg/injection, schedule: Q01DX001 (ip), vehicle: alkali diluted with saline
  T/C: 103 % of control
dose: 200.0 mg/kg/injection, schedule: Q01DX001 (ip), vehicle: alkali diluted with saline
  T/C: 100 % of control
dose: 400.0 mg/kg/injection, schedule: Q01DX001 (ip), vehicle: alkali diluted with saline
  T/C: 98 % of control

## CCCC1CCCC[N+]1(C)[B-](F)(F)F (stereo not given)
dose: 3.12 mg/kg/injection, schedule: Q01DX005 (ip), vehicle: saline
  T/C: 100 % of control
[4]
  T/C: 99 % of control
[5]
  T/C: 103 % of control
[6]
  T/C: 100 % of control and 102 % of control

## O=S(=O)([O][Hg][CH2]C1Cc2ccccc2O1)[O][Hg][CH2]C1Cc2ccccc2O1 (stereo not given)
dose: 11.0 mg/kg/injection, schedule: Q01DX009 (ip), vehicle: saline with Tween-80
  T/C: 118 % of control

## O=NN(CCCl)C(=O)Oc1ccc(Cl)cc1Cl
dose: 3.12 mg/kg/injection, schedule: Q01DX001 (ip), vehicle: saline with Tween-80
  T/C: 106 % of control
dose: 6.25 mg/kg/injection, schedule: Q01DX001 (ip), vehicle: saline with Tween-80
  T/C: 118 % of control
dose: 25.0 mg/kg/injection, schedule: Q01DX001 (ip), vehicle: saline with Tween-80
  T/C: 123 % of control
dose: 50.0 mg/kg/injection, schedule: Q01DX001 (ip), vehicle: saline with Tween-80
  T/C: 109 % of control
[7]
  T/C: 122 % of control
dose: 150.0 mg/kg/injection, schedule: Q01DX001 (ip), vehicle: saline with Tween-80
  T/C: 118 % of control

## NC(=S)N/N=C/c1cc([N+](=O)[O-])ccc1Cl
[8]
  T/C: 94 % of control
[9]
  T/C: 92 % of control
[10]
  T/C: 94 % of control

## S=P(N1CC1)(N1CC1)N1CC1
dose: 0.62 mg/kg/injection, schedule: Q01DX005 (ip), vehicle: saline
  T/C: 100 % of control
dose: 0.75 mg/kg/injection, schedule: Q01DX005 (ip), vehicle: saline
  T/C: 118 % of control
dose: 0.75 mg/kg/injection, schedule: Q01DX009 (ip), vehicle: saline
  T/C: 106 % of control
dose: 1.25 mg/kg/injection, schedule: Q01DX005 (ip), vehicle: saline
  T/C: 115 % of control
dose: 1.25 mg/kg/injection, schedule: Q04DX003 (ip), vehicle: water
  T/C: 101 % of control and 110 % of control (2×)
dose: 1.5 mg/kg/injection, schedule: Q01DX005 (ip), vehicle: saline
  T/C: 114 % of control and 120 % of control
dose: 2.0 mg/kg/injection, schedule: Q01DX009 (ip), vehicle: saline
  T/C: 124 % of control
dose: 2.5 mg/kg/injection, schedule: Q04DX003 (ip), vehicle: water
  T/C: 110 % of control
dose: 3.0 mg/kg/injection, schedule: Q01DX005 (ip), vehicle: saline
  T/C: 163 % of control
dose: 3.0 mg/kg/injection, schedule: Q01DX009 (ip), vehicle: saline
  T/C: 163 % of control and 174 % of control
dose: 3.24 mg/kg/injection, schedule: Q04DX002 (ip), vehicle: saline
  T/C: 124 % of control
dose: 4.0 mg/kg/injection, schedule: Q01DX009 (ip), vehicle: saline
  T/C: 178 % of control
dose: 5.0 mg/kg/injection, schedule: Q01DX005 (ip), vehicle: saline
  T/C: 169 % of control
dose: 5.0 mg/kg/injection, schedule: Q04DX003 (ip), vehicle: water
  T/C: 163 % of control
dose: 6.0 mg/kg/injection, schedule: Q01DX005 (ip), vehicle: saline
  T/C: 181 % of control and 207 % of control and 90 % of control
dose: 8.0 mg/kg/injection, schedule: Q01DX009 (ip), vehicle: saline
  T/C: 101 % of control
dose: 9.0 mg/kg/injection, schedule: Q04DX002 (ip), vehicle: saline
  T/C: 166 % of control
dose: 10.0 mg/kg/injection, schedule: Q04DX003 (ip), vehicle: water
  T/C: 159 % of control and 200 % of control and 229 % of control
dose: 12.0 mg/kg/injection, schedule: Q01DX005 (ip), vehicle: saline
  T/C: 88 % of control
dose: 15.0 mg/kg/injection, schedule: Q04DX002 (ip), vehicle: saline
  T/C: 197 % of control
dose: 20.0 mg/kg/injection, schedule: Q04DX003 (ip), vehicle: water
  T/C: 110 % of control and 90 % of control and 92 % of control
dose: 25.0 mg/kg/injection, schedule: Q04DX002 (ip), vehicle: saline
  T/C: 240 % of control

## O=C(O)c1ccc(COc2ccc([N+](=O)[O-])cc2Cl)cc1
dose: 100.0 mg/kg/injection, schedule: Q04DX003 (ip), vehicle: saline
  T/C: 100 % of control
dose: 200.0 mg/kg/injection, schedule: Q04DX003 (ip), vehicle: saline
  T/C: 99 % of control

## O=C(c1ccccc1)c1c(-c2ccccc2)c(=O)n2c(sc3ccccc32)c1C(=O)c1ccccc1
[7]
  T/C: 93 % of control
dose: 200.0 mg/kg/injection, schedule: Q01DX001 (ip), vehicle: saline with Tween-80
  T/C: 100 % of control
dose: 400.0 mg/kg/injection, schedule: Q01DX001 (ip), vehicle: saline with Tween-80
  T/C: 109 % of control

## COc1ccc(CSC(=S)Nc2cc(C)c(C)cc2[N+](=O)[O-])cc1
[8]
  T/C: 93 % of control
[9]
  T/C: 97 % of control
[10]
  T/C: 97 % of control

## Cc1noc(C)c1CON
dose: 75.0 mg/kg/injection, schedule: Q01DX009 (ip), vehicle: saline with Tween-80
  T/C: 91 % of control
dose: 75.0 mg/kg/injection, schedule: Q04DX003 (ip), vehicle: saline
  T/C: 95 % of control
dose: 150.0 mg/kg/injection, schedule: Q04DX003 (ip), vehicle: saline
  T/C: 95 % of control
dose: 300.0 mg/kg/injection, schedule: Q04DX003 (ip), vehicle: saline
  T/C: 91 % of control

## CCc1ccc(NC(=O)/C=C\C(=O)O)cc1
[11]
  T/C: 98 % of control
[12]
  T/C: 95 % of control
[13]
  T/C: 90 % of control

## CC(C)N1COC2Cc3ccccc3CC21 (stereo not given)
[4]
  T/C: 99 % of control
[5]
  T/C: 101 % of control
[6]
  T/C: 101 % of control and 110 % of control
dose: 50.0 mg/kg/injection, schedule: Q01DX005 (ip), vehicle: saline
  T/C: 117 % of control and 120 % of control and 121 % of control

## C/C(=N\N=C(/[Se])N1CCC(C)CC1)c1ccccn1
[11]
  T/C: 107 % of control
[12]
  T/C: 100 % of control
[13]
  T/C: 100 % of control
